Source: PubChem BioAssay AID248 (DTP/NCI, 2004)
“And” between values parts separate entries of the source, which are not always exact repeats. Equal entries are not always repeated. Toxic doses and inconclusive results are not listed. No stated cut-off is given here; in the data, active means T/C of 150% or more; inactive means T/C below 125%.

System: L1210 leukemia ip in BDF1 mice, survival T/C
Assay: NCI In Vivo Anticancer Drug Screen. Data for tumor model L1210 Leukemia (intraperitoneal) in B6D2F1 (BDF1) mice
Settings: endpoint: mean survival time, higher = longer survival
Method in brief: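 Mice bearing the transplanted tumor received compound or vehicle. Survival of the treated group was divided by that of the vehicle-treated control group to give the ratio.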

[1] = dose: 12.5 mg/kg/injection, schedule: Q01DX009 (ip), vehicle: other
[2] = dose: 25.0 mg/kg/injection, schedule: Q01DX009 (ip), vehicle: other
[3] = dose: 100.0 mg/kg/injection, schedule: Q04DX003 (ip), vehicle: saline with Tween-80
[4] = dose: 100.0 mg/kg/injection, schedule: Q01DX009 (ip), vehicle: Klucel (hydroxypropylcellulose) (HPC)
[5] = dose: 100.0 mg/kg/injection, schedule: Q04DX003 (ip), vehicle: Klucel (hydroxypropylcellulose) (HPC)
[6] = dose: 200.0 mg/kg/injection, schedule: Q01DX009 (ip), vehicle: Klucel (hydroxypropylcellulose) (HPC)
[7] = dose: 200.0 mg/kg/injection, schedule: Q04DX003 (ip), vehicle: Klucel (hydroxypropylcellulose) (HPC)
[8] = dose: 400.0 mg/kg/injection, schedule: Q01DX009 (ip), vehicle: Klucel (hydroxypropylcellulose) (HPC)
[9] = dose: 400.0 mg/kg/injection, schedule: Q04DX003 (ip), vehicle: Klucel (hydroxypropylcellulose) (HPC)
[10] = dose: 100.0 mg/kg/injection, schedule: Q01DX001 (ip), vehicle: saline
[11] = dose: 200.0 mg/kg/injection, schedule: Q01DX001 (ip), vehicle: saline
[12] = dose: 400.0 mg/kg/injection, schedule: Q01DX001 (ip), vehicle: saline
[13] = dose: 100.0 mg/kg/injection, schedule: Q01DX001 (ip), vehicle: carboxymethylcellulose (CMC)
[14] = dose: 200.0 mg/kg/injection, schedule: Q01DX001 (ip), vehicle: carboxymethylcellulose (CMC)
[15] = dose: 400.0 mg/kg/injection, schedule: Q01DX001 (ip), vehicle: carboxymethylcellulose (CMC)
[16] = dose: 200.0 mg/kg/injection, schedule: Q04DX003 (ip), vehicle: saline with Tween-80
[17] = dose: 400.0 mg/kg/injection, schedule: Q04DX003 (ip), vehicle: saline with Tween-80
[18] = dose: 25.0 mg/kg/injection, schedule: Q04DX002 (ip), vehicle: Klucel (hydroxypropylcellulose) (HPC)
[19] = dose: 50.0 mg/kg/injection, schedule: Q04DX002 (ip), vehicle: Klucel (hydroxypropylcellulose) (HPC)
[20] = dose: 100.0 mg/kg/injection, schedule: Q04DX002 (ip), vehicle: Klucel (hydroxypropylcellulose) (HPC)

Measured: T/C

O=C(CCl)NCCCNC(=O)CCl
inactive: dose: 6.25 mg/kg/injection, schedule: Q01DX009 (ip), vehicle: other 94 % of control | [1] 94 % of control | [2] 94 % of control | dose: 25.0 mg/kg/injection, schedule: Q04DX003 (ip), vehicle: saline with Tween-80 98 % of control | dose: 50.0 mg/kg/injection, schedule: Q04DX003 (ip), vehicle: saline with Tween-80 102 % of control | [3] 111 % of control

C#CCCCCCCCCCC(=O)OC
inactive: [4] 102 % of control | [5] 103 % of control | [6] 102 % of control | [7] 95 % of control | [8] 104 % of control | [9] 98 % of control

C=C(CCCC)CNCCOC(=O)c1ccc([N+](=O)[O-])cc1
inactive: dose: 12.5 mg/kg/injection, schedule: Q04DX003 (ip), vehicle: saline 98 % of control | dose: 25.0 mg/kg/injection, schedule: Q04DX003 (ip), vehicle: saline 93 % of control | dose: 50.0 mg/kg/injection, schedule: Q04DX003 (ip), vehicle: saline 100 % of control

O=[N+]([O-])c1ccc(Oc2cc(Cl)c(Cl)cc2Cl)c(Cl)c1
inactive: dose: 75.0 mg/kg/injection, schedule: Q01DX001 (ip), vehicle: saline 87 % of control | dose: 150.0 mg/kg/injection, schedule: Q01DX001 (ip), vehicle: saline 90 % of control | dose: 300.0 mg/kg/injection, schedule: Q01DX001 (ip), vehicle: saline 87 % of control

CNC(C)=O
inactive: [10] 100 % of control | dose: 100.0 mg/kg/injection, schedule: Q01DX009 (ip), vehicle: saline 110 % of control | dose: 125.0 mg/kg/injection, schedule: Q01DX Z (ip), vehicle: carboxymethylcellulose (CMC) 86 % of control | [11] 97 % of control | dose: 200.0 mg/kg/injection, schedule: Q01DX009 (ip), vehicle: saline 107 % of control | [12] 95 % of control | dose: 400.0 mg/kg/injection, schedule: Q01DX009 (ip), vehicle: saline 115 % of control | dose: 500.0 mg/kg/injection, schedule: Q01DX Z (ip), vehicle: carboxymethylcellulose (CMC) 86 % of control | dose: 1000.0 mg/kg/injection, schedule: Q01DX Z (ip), vehicle: carboxymethylcellulose (CMC) 110 % of control

COc1cc(OC)c2c(=O)c3ccoc3n(C)c2c1OC
inactive: dose: 50.0 mg/kg/injection, schedule: Q01DX001 (ip), vehicle: carboxymethylcellulose (CMC) 98 % of control | [13] 98 % of control | [14] 93 % of control | [15] 93 % of control

O=C(O)c1cccnc1Br
inactive: [3] 105 % of control | [16] 101 % of control | [17] 100 % of control

COc1cc(NC(=O)Nc2cccc(Cl)c2)c(OC)cc1Cl
inactive: dose: 25.0 mg/kg/injection, schedule: Q04DX002 (ip), vehicle: saline with Tween-80 99 % of control | dose: 50.0 mg/kg/injection, schedule: Q04DX002 (ip), vehicle: saline with Tween-80 99 % of control | dose: 100.0 mg/kg/injection, schedule: Q04DX002 (ip), vehicle: saline with Tween-80 96 % of control

O=c1cc(O)c2c(O)cc(O)cc2o1
inactive: [10] 96 % of control | [11] 96 % of control | [12] 88 % of control

CNC(=O)OCC1=C(OC)C(=O)C(OC)=CC1=O
inactive: [1] 90 % of control | dose: 12.5 mg/kg/injection, schedule: Q04DX003 (ip), vehicle: other 97 % of control | [2] 92 % of control | dose: 25.0 mg/kg/injection, schedule: Q04DX003 (ip), vehicle: other 96 % of control | dose: 50.0 mg/kg/injection, schedule: Q01DX009 (ip), vehicle: other 90 % of control | dose: 50.0 mg/kg/injection, schedule: Q04DX003 (ip), vehicle: other 100 % of control

COc1ccc2nc3ccccc3c(NCCNCCO)c2c1
inactive: dose: 5.0 mg/kg/injection, schedule: Q01DX001 (ip), vehicle: saline 97 % of control | dose: 6.0 mg/kg/injection, schedule: Q01DX Z (ip), vehicle: carboxymethylcellulose (CMC) 98 % of control | dose: 9.0 mg/kg/injection, schedule: Q01DX Z (ip), vehicle: carboxymethylcellulose (CMC) 92 % of control | dose: 10.0 mg/kg/injection, schedule: Q01DX001 (ip), vehicle: saline 106 % of control | dose: 20.0 mg/kg/injection, schedule: Q01DX001 (ip), vehicle: saline 101 % of control | dose: 40.0 mg/kg/injection, schedule: Q01DX001 (ip), vehicle: saline 97 % of control | dose: 80.0 mg/kg/injection, schedule: Q01DX001 (ip), vehicle: saline 92 % of control

O=C1C2ON=C(c3ccccc3)C2C(=O)N1OS(=O)(=O)c1ccccc1 (centres undefined)
inactive: dose: 100.0 mg/kg/injection, schedule: Q01DX009 (ip), vehicle: saline with Tween-80 98 % of control | [3] 103 % of control | dose: 200.0 mg/kg/injection, schedule: Q01DX009 (ip), vehicle: saline with Tween-80 92 % of control | [16] 102 % of control | dose: 400.0 mg/kg/injection, schedule: Q01DX009 (ip), vehicle: saline with Tween-80 88 % of control | [17] 90 % of control

Cc1ccc(S(=O)(=O)NNC(=O)c2ccccc2NCC(O)C(O)C(O)CO)cc1 (centres undefined)
inactive: [13] 98 % of control | [14] 96 % of control | [15] 98 % of control

Cc1cccc(NC(=O)COc2ccc(Cl)cc2)c1C
inactive: [4] 97 % of control | [5] 92 % of control | [6] 94 % of control | [7] 95 % of control | [8] 97 % of control | [9] 96 % of control

CC(=O)OCC(CS(=O)c1c(Cl)c(Cl)c(Cl)c(Cl)c1Cl)OC(C)=O (centres undefined)
inactive: [18] 93 % of control | [19] 86 % of control | [20] 106 % of control and 89 % of control | dose: 200.0 mg/kg/injection, schedule: Q04DX002 (ip), vehicle: Klucel (hydroxypropylcellulose) (HPC) 97 % of control and 124 % of control | dose: 400.0 mg/kg/injection, schedule: Q04DX002 (ip), vehicle: Klucel (hydroxypropylcellulose) (HPC) 109 % of control

Nc1ccnc(SCc2ccccc2)n1
inactive: dose: 100.0 mg/kg/injection, schedule: Q01DX001 (ip), vehicle: saline with Tween-80 90 % of control | dose: 200.0 mg/kg/injection, schedule: Q01DX001 (ip), vehicle: saline with Tween-80 93 % of control | dose: 400.0 mg/kg/injection, schedule: Q01DX001 (ip), vehicle: saline with Tween-80 93 % of control

O=C(COc1ccc(Cl)cc1Cl)Nc1ccc2ccccc2c1S(=O)(=O)O
inactive: [18] 112 % of control | [19] 98 % of control | [20] 94 % of control
